pIC50: −log10 of the molar value.
Experiments:
[1] = tested on: B 697 promyelocytic cell line; assay: Cytotoxicity on 697 cell line (CellTiter 96); type: cell-based; conditions: 72 hours incubation, read-out: 697 TOXICITY
Summary of the method: (§1)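 Mitochondrial-function readout (CellTiter 96 Aqueous One) after 72 h compound exposure, begun 24 h post-seeding. Dose ranges: 697 cells, 1 to 10000 nM at 2×10^4 cells/well; PBMCs, 1.5 to 10000 nM at 5×10^5 cells/well.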

[2] = tested on: peripheral blood mononuclear cells (PBMCs); assay: Cytotoxicity on PBMCs (CellTiter 96); type: cell-based; conditions: PBMC, 72 h; read-out: PBMC TOXICITY (72 h)
Summary of the method: as §1

| Compound | pIC50 [1] | pIC50 [2] |
| --- | --- | --- |
| O=C(NO)c1ccc(Cn2nnnc2-c2cccs2)cc1 [comp. 8, N-hydroxy-4-((5-(thiophen-2-yl)-1H-tetrazol-1-yl)methyl)benzamide] | 5.05 | 5.46 |
| O=C(NO)c1cc(F)c(Cn2nnnc2-c2ncccn2)c(F)c1 [comp. 125, 3,5-difluoro-4-[(5-pyrimidin-2-yltetrazol-1-yl)methyl]benzenecarbohydroxamic acid] | < 5.00 | < 5.00 |
| Cn1c(Sc2c(F)cc(C(=O)NO)cc2F)nnc1-c1cccc(CN2CCCCCC2)c1 [comp. 167, 4-[[5-[3-(azepan-1-ylmethyl)phenyl]-4-methyl-1,2,4-triazol-3-yl]sulfanyl]-3,5-difluoro-benzenecarbohydroxamic acid] | 4.37 | < 5.00 |
| Cn1c(Sc2c(F)cc(C(=O)NO)cc2F)nnc1-c1ccc(CN2CCCCCC2)cc1 [comp. 168, 4-[[5-[4-(azepan-1-ylmethyl)phenyl]-4-methyl-1,2,4-triazol-3-yl]sulfanyl]-3,5-difluoro-benzenecarbohydroxamic acid] | 4.43 | 5.15 |
| Nc1ccc(-c2nnn(Cc3c(F)cc(C(=O)NO)cc3F)n2)cc1 [comp. 171, 4-[[5-(4-aminophenyl)tetrazol-2-yl]methyl]-3,5-difluoro-benzenecarbohydroxamic acid] | 5.21 | < 5.00 |
| Cn1c(Sc2c(F)cc(C(=O)NO)cc2F)nnc1-c1cccnn1 [comp. 179, 3,5-difluoro-4-[(4-methyl-5-pyridazin-3-yl-1,2,4-triazol-3-yl)sulfanyl]benzenecarbohydroxamic acid] | 4.30 | < 5.00 |
| Cn1c(Sc2c(F)cc(C(=O)NO)cc2F)nnc1-c1ncccc1F [comp. 180, 3,5-difluoro-4-[[5-(3-fluoro-2-pyridyl)-4-methyl-1,2,4-triazol-3-yl]sulfanyl]benzenecarbohydroxamic acid] | 4.40 | < 5.00 |
| O=C(NO)c1cc(F)c(Cc2nnc(-c3ccncc3)s2)c(F)c1 [compound 195, 3,5-difluoro-4-[[5-(4-pyridyl)-1,3,4-thiadiazol-2-yl]methyl]benzenecarbohydroxamic acid] | 5.51 | < 5.00 |
